Three molecules from ChEMBL document CHEMBL1159251, “A new polyether acid from a cold water marine sponge, a Phakellia species” (J Nat Prod, 1995) can be followed below.

The nature of series [1]: Cytotoxicity against african green monkey CV1 cells assessed as zone of diameter at 0.1 ug/ml. The settings on record: chlorocebus aethiops, cv-1. The format is cell-based.
The nature of series [2]: Cytotoxicity against BHK cells. The format is cell-based, Mesocricetus auratus. The conditions noted are these: hamster.
The test system of series [3] is Vesicular stomatitis virus. The experiment in a line: Antiviral activity against VSV in BHK cells at 0.01 ug/ml by plaque reduction method. In kind it is functional, organism-based. (Plaque reduction counts the foci of infection that form in a cell layer.)
Series [4] in a line: Cytotoxicity against african green monkey CV1 cells assessed as zone of diameter at 0.01 ug/ml. The conditions noted are these: chlorocebus aethiops, cv-1. In kind it is cell-based.
The next series has as its system L1210. The experiment in a line: Cytotoxicity against mouse L1210 cells. The format is cell-based.
In series [5] the test system is Human alphaherpesvirus 1. Description: Antiviral activity against HSV1 in african green monkey CV1 cells at 0.01 ug/ml by plaque reduction method. The format is functional, organism-based. The conditions noted are these: CV-1.
Series [6] deals with Human alphaherpesvirus 1. The experiment in a line: Antiviral activity against HSV1 in african green monkey CV1 cells at 0.1 ug/ml by plaque reduction method. The conditions noted are these: CV-1. The format is functional, organism-based.
Series [7] has as its system Human alphaherpesvirus 1. Description: Antiviral activity against HSV1 in african green monkey CV1 cells at 1 ug/ml by plaque reduction method. In kind it is functional, organism-based. The settings on record: CV-1.

Values after ≈ are worked out from the molar mass of the structure shown. Active and inactive are the calls of the source. The calls are words filed in the database; no cut-off is given here.

By IC50 is commonly meant the concentration needed to halve the response being measured. Consider `C=C1[C@@H](O)[C@@H]2O[C@]3(CC[C@H](CC[C@@H](C)[C@@H]4CC(C)=C[C@@]5(O[C@H](C[C@@](C)(O)C(=O)O)CC[C@H]5O)O4)O3)CC[C@H]2O[C@@H]1[C@@H](O)C[C@H](C)[C@H]1O[C@@]2(CC[C@H]1C)OCCC[C@H]2C`, for which the “inhibition zone (IZ)” value in series [1] and in series [4] was 0 mm throughout. Besides, in series [2], the Activity result is “Toxic”. Further, the result in series [3] was Active. In the series with L1210, this molecule registered a 50% inhibitory concentration (IC50) of 3 ng/mL (≈ 3.65 nM). The outcome with Human alphaherpesvirus 1 [5] was inactive.

For `C=C1[C@@H](O)[C@@H]2O[C@]3(CC[C@H](/C=C/[C@@H](C)[C@@H]4CC(C)=C[C@@]5(O[C@H](C[C@@](C)(O)C(=O)O)CC[C@H]5O)O4)O3)CC[C@H]2O[C@@H]1[C@@H](O)C[C@H](C)[C@H]1O[C@@]2(CC[C@H]1C)OCCC[C@H]2C` [DINOPHYSISTOXIN 1], the Activity entry in series [1] and in series [2] was “Toxic” throughout. The “inhibition zone (IZ)” value in series [4] is 0 mm. In the series with L1210, this molecule showed an IC50 of 2 ng/mL (≈ 2.44 nM). Besides, the result with Human alphaherpesvirus 1 [6] and with Human alphaherpesvirus 1 [7] was Active. Besides, in the series on Human alphaherpesvirus 1 [5], the outcome was inactive.

Take `C=C1[C@@H](O)[C@@H]2O[C@]3(CC[C@H](/C=C/[C@@H](C)[C@@H]4CC(C)=C[C@@]5(O[C@H](C[C@@](C)(O)C(=O)O)CC[C@H]5O)O4)O3)CC[C@H]2O[C@@H]1[C@@H](O)C[C@H](C)[C@H]1O[C@@]2(CCCCO2)CC[C@H]1C` [OKADAIC ACID]: the “inhibition zone (IZ)” value in series [1] is 22 mm; in series [4], 0 mm. Besides, 5 ng/mL (≈ 6.21 nM) corresponded to half-maximal inhibition in the series with L1210 (IC50).
